Test results from PubChem BioAssay AID248 (DTP/NCI, 2004).
Inconclusive results and toxic doses are left out. Cut-off read from the data, not from the text of the source: active = T/C of 150% or more; inactive = T/C below 125%. Numbered stars: 1 amine (or outer) side, 2 acyl side, 3 side chain; on linkers, the order of the positions; unused ones are H or OH. Bridge positions count the residues as written; N and C are the ends. Square brackets hold non-standard residues; d marks the D form. Peptide text beside a SMILES is read from it. I, II: the chains in the order shown. * marks the point of attachment. ξ: configuration not given here. Actinocin(9to1) = Cc1c2oc3c(C)ccc(C(=O)[*:1])c3nc-2c(C(=O)[*:2])c(N)c1=O; ξW = NC(Cc1c[nH]c2ccccc12)C(=O)O; NMeV = CN[CH](C(=O)O)C(C)C; Cbz = O=C(OCc1ccccc1)*; Sar = CNCC(=O)O

Tested on: L1210 leukemia ip in BDF1 mice, survival T/C
Experiment: NCI In Vivo Anticancer Drug Screen. Data for tumor model L1210 Leukemia (intraperitoneal) in B6D2F1 (BDF1) mice
Details: endpoint: mean survival time, higher = longer survival
How it was run: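 Tumor was transplanted into mice, which were then dosed with test compound or vehicle alone. Survival was recorded for each group, and the treated figure was expressed relative to the control figure.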

[1] = dose: 100.0 mg/kg/injection, schedule: Q04DX003 (ip), vehicle: saline with Tween-80
[2] = dose: 200.0 mg/kg/injection, schedule: Q04DX003 (ip), vehicle: saline with Tween-80
[3] = dose: 400.0 mg/kg/injection, schedule: Q04DX003 (ip), vehicle: saline with Tween-80
[4] = dose: 100.0 mg/kg/injection, schedule: Q01DX001 (ip), vehicle: saline
[5] = dose: 200.0 mg/kg/injection, schedule: Q01DX001 (ip), vehicle: saline
[6] = dose: 100.0 mg/kg/injection, schedule: Q01DX001 (ip), vehicle: carboxymethylcellulose (CMC)
[7] = dose: 200.0 mg/kg/injection, schedule: Q01DX001 (ip), vehicle: carboxymethylcellulose (CMC)
[8] = dose: 400.0 mg/kg/injection, schedule: Q01DX001 (ip), vehicle: carboxymethylcellulose (CMC)
[9] = dose: 100.0 mg/kg/injection, schedule: Q01DX009 (ip), vehicle: Klucel (hydroxypropylcellulose) (HPC)
[10] = dose: 200.0 mg/kg/injection, schedule: Q01DX009 (ip), vehicle: Klucel (hydroxypropylcellulose) (HPC)
[11] = dose: 100.0 mg/kg/injection, schedule: Q04DX003 (ip), vehicle: saline
[12] = dose: 200.0 mg/kg/injection, schedule: Q04DX003 (ip), vehicle: saline
[13] = dose: 400.0 mg/kg/injection, schedule: Q04DX003 (ip), vehicle: saline
[14] = dose: 100.0 mg/kg/injection, schedule: Q01DX009 (ip), vehicle: saline with Tween-80
[15] = dose: 200.0 mg/kg/injection, schedule: Q01DX009 (ip), vehicle: saline with Tween-80
[16] = dose: 400.0 mg/kg/injection, schedule: Q01DX009 (ip), vehicle: saline with Tween-80
[17] = dose: 100.0 mg/kg/injection, schedule: Q04DX003 (ip), vehicle: Klucel (hydroxypropylcellulose) (HPC)
[18] = dose: 200.0 mg/kg/injection, schedule: Q04DX003 (ip), vehicle: Klucel (hydroxypropylcellulose) (HPC)
[19] = dose: 100.0 mg/kg/injection, schedule: Q04DX002 (ip), vehicle: Klucel (hydroxypropylcellulose) (HPC)
[20] = dose: 200.0 mg/kg/injection, schedule: Q04DX002 (ip), vehicle: Klucel (hydroxypropylcellulose) (HPC)
[21] = dose: 400.0 mg/kg/injection, schedule: Q04DX002 (ip), vehicle: Klucel (hydroxypropylcellulose) (HPC)

Measured: T/C

COC(=O)C(Cc1c[nH]c2ccccc12)NC(=O)CNC(=O)CNC(=O)OCc1ccccc1 (stereo not drawn) (Cbz-Gly-Gly-[ξW]-OMe)
inactive: [1] 105 % of control | [2] 101 % of control | [3] 100 % of control

O=C(Cc1ccccc1)C(Cl)c1ccccc1 (stereo not drawn)
inactive: [4] 94 % of control | [5] 105 % of control

COc1ccc([P+](Cc2ccccc2)(c2ccccc2)c2ccc3ccccc3c2)cc1 (stereo not drawn)
inactive: dose: 75.0 mg/kg/injection, schedule: Q01DX001 (ip), vehicle: carboxymethylcellulose (CMC) 91 % of control | dose: 150.0 mg/kg/injection, schedule: Q01DX001 (ip), vehicle: carboxymethylcellulose (CMC) 96 % of control

O=C(Nc1ccc(C(F)(F)F)cc1)Nc1cccc(Cl)c1
inactive: dose: 50.0 mg/kg/injection, schedule: Q01DX001 (ip), vehicle: carboxymethylcellulose (CMC) 98 % of control | [6] 101 % of control | [7] 93 % of control | [8] 95 % of control

CCCSCCNC(=O)NCCSCCC
inactive: dose: 100.0 mg/kg/injection, schedule: Q04DX002 (ip), vehicle: other 107 % of control | dose: 200.0 mg/kg/injection, schedule: Q04DX002 (ip), vehicle: other 104 % of control | dose: 400.0 mg/kg/injection, schedule: Q04DX002 (ip), vehicle: other 100 % of control

Cc1c(Cl)c(=O)[nH]c2ccccc12
inactive: dose: 50.0 mg/kg/injection, schedule: Q01DX009 (ip), vehicle: Klucel (hydroxypropylcellulose) (HPC) 101 % of control | [9] 97 % of control | [10] 106 % of control

CC(C)=CCn1c(=O)c2c(ncn2C)n(C)c1=O
inactive: [1] 98 % of control | [2] 98 % of control

OC(c1ccccc1)(c1ccccc1)c1ccccc1Cl
inactive: [11] 94 % of control | [12] 91 % of control | [13] 91 % of control

COc1ccc(OCC(=O)O)c(C=O)c1
inactive: [14] 95 % of control | [1] 115 % of control | [15] 93 % of control | [2] 96 % of control | [16] 91 % of control | [3] 106 % of control

Nc1ncnc(N2CCOCC2)n1
inactive: [6] 96 % of control | [7] 107 % of control | [8] 100 % of control

CC(=O)NC(Cc1ccccc1)C(=O)O (stereo not drawn)
inactive: dose: 50.0 mg/kg/injection, schedule: Q04DX003 (ip), vehicle: Klucel (hydroxypropylcellulose) (HPC) 94 % of control | [17] 103 % of control | [18] 100 % of control

CC(=O)Nc1ccc(NC(=O)c2ccc(C(=O)Nc3ccc(NC(C)=O)cc3)cc2)cc1
inactive: dose: 100.0 mg/kg/injection, schedule: Q01DX001 (ip), vehicle: other 98 % of control | dose: 200.0 mg/kg/injection, schedule: Q01DX001 (ip), vehicle: other 93 % of control | dose: 400.0 mg/kg/injection, schedule: Q01DX001 (ip), vehicle: other 96 % of control

COc1ccc(Cc2cc3cc(OC)c(OC)cc3cn2)cc1OC
inactive: [14] 103 % of control | [1] 93 % of control | [15] 105 % of control | [2] 104 % of control | [16] 121 % of control | [3] 90 % of control

C=CCOc1ccc(Cl)cc1
inactive: [1] 90 % of control | [2] 94 % of control

c1ccc2c(c1)CC1c3ccccc3CC21 (stereo not drawn)
inactive: [4] 109 % of control | [5] 103 % of control | dose: 400.0 mg/kg/injection, schedule: Q01DX001 (ip), vehicle: saline 98 % of control

O=C(Nc1ccc2c(c1)C(=O)c1ccccc1C2=O)Nc1cc(C(F)(F)F)ccc1Cl
inactive: [9] 103 % of control | [10] 97 % of control | dose: 400.0 mg/kg/injection, schedule: Q01DX009 (ip), vehicle: Klucel (hydroxypropylcellulose) (HPC) 88 % of control

CCCCNC(=S)NCCCC
inactive: [9] 92 % of control | [19] 98 % of control | [10] 98 % of control | [20] 104 % of control

CN(C)C(=O)Sc1ccc2c(c1)CCC1C2CCC2(C)C(=O)CCC12 (stereo not drawn)
inactive: dose: 100.0 mg/kg/injection, schedule: Q01DX001 (ip), vehicle: gum acacia 101 % of control | dose: 200.0 mg/kg/injection, schedule: Q01DX001 (ip), vehicle: gum acacia 101 % of control | dose: 400.0 mg/kg/injection, schedule: Q01DX001 (ip), vehicle: gum acacia 97 % of control

O=C(Nc1ccc(Br)cc1)c1nc(Br)[nH]c1Br
inactive: dose: 6.25 mg/kg/injection, schedule: Q01DX009 (ip), vehicle: saline with Tween-80 94 % of control | dose: 12.5 mg/kg/injection, schedule: Q01DX009 (ip), vehicle: saline with Tween-80 89 % of control | dose: 25.0 mg/kg/injection, schedule: Q01DX009 (ip), vehicle: saline with Tween-80 89 % of control

Cc1c2oc3c(C)ccc(C(=O)NC4C(=O)NC(C(C)C)C(=O)N5CCCC5C(=O)N(C)CC(=O)N(C)C(C(C)C)C(=O)OC4C)c3nc-2c(C(=O)NC2C(=O)NC(C(C)C)C(=O)N3CCCC3C(=O)N(C)CC(=O)N(C)C(C(C)C)C(=O)OC2C)c(N)c1=O (stereo not drawn) (I: TVP[Sar][NMeV] / II: TVP[Sar][NMeV]; ester I:1-I:C, II:1-II:C; linker I:N-II:N via Actinocin(9to1); configuration not given here)
inactive: dose: 0.05 mg/kg/injection, schedule: Q01DX009 (ip), vehicle: water 117 % of control | dose: 0.1 mg/kg/injection, schedule: Q01DX009 (ip), vehicle: water 106 % of control | dose: 0.2 mg/kg/injection, schedule: Q01DX009 (ip), vehicle: water 120 % of control | dose: 0.3 mg/kg/injection, schedule: Q04DX003 (ip), vehicle: water 124 % of control | dose: 0.4 mg/kg/injection, schedule: Q01DX009 (ip), vehicle: water 93 % of control | dose: 1.2 mg/kg/injection, schedule: Q04DX003 (ip), vehicle: water 110 % of control | dose: 1.8 mg/kg/injection, schedule: Q04DX003 (ip), vehicle: water 91 % of control

CC(C)/C(=C\c1ccccc1)C(=O)c1ccccc1
inactive: [1] 104 % of control | [2] 110 % of control

Clc1nc2nc(C3CC3)[nH]c2nc1Cl
inactive: [14] 104 % of control | [1] 97 % of control | [15] 90 % of control | [2] 95 % of control | [16] 111 % of control | [3] 101 % of control

CCCCNC(=O)Nc1cc(C)ccc1Cl
inactive: [19] 115 % of control | [20] 97 % of control | [21] 105 % of control

CC1(C)N=C(N)N=C(N)N1c1ccc(OCCCNC(=O)Nc2cccc(S(=O)(=O)F)c2)c(Cl)c1
inactive: dose: 50.0 mg/kg/injection, schedule: Q01DX009 (ip), vehicle: saline 114 % of control

CC(O)Cc1c(Cc2ccccc2)nc(N)[nH]c1=O (stereo not drawn)
inactive: [11] 96 % of control | [12] 97 % of control | [13] 92 % of control

CC(C)C(=O)CCC1CCCCC1
inactive: dose: 100.0 mg/kg/injection, schedule: Q01DX001 (ip), vehicle: saline with Tween-80 100 % of control | dose: 200.0 mg/kg/injection, schedule: Q01DX001 (ip), vehicle: saline with Tween-80 100 % of control | dose: 400.0 mg/kg/injection, schedule: Q01DX001 (ip), vehicle: saline with Tween-80 97 % of control

CC(=O)OCC(O)C(O)C(O)C(O)C=O (stereo not drawn) (tested in a mixture with another compound)
inactive: [19] 92 % of control | [20] 103 % of control | [21] 95 % of control

CCc1cccc(CC)c1N1C(=O)CC(Sc2ccccc2N)C1=O (stereo not drawn)
inactive: dose: 100.0 mg/kg/injection, schedule: Q01DX009 (ip), vehicle: gum acacia 93 % of control | dose: 100.0 mg/kg/injection, schedule: Q04DX003 (ip), vehicle: gum acacia 96 % of control | dose: 200.0 mg/kg/injection, schedule: Q01DX009 (ip), vehicle: gum acacia 91 % of control | dose: 200.0 mg/kg/injection, schedule: Q04DX003 (ip), vehicle: gum acacia 91 % of control | dose: 400.0 mg/kg/injection, schedule: Q01DX009 (ip), vehicle: gum acacia 98 % of control | dose: 400.0 mg/kg/injection, schedule: Q04DX003 (ip), vehicle: gum acacia 100 % of control

Cc1ccc(S(=O)(=O)N(C)c2ccc(I)c(Cl)c2Cl)cc1
inactive: [17] 102 % of control | [18] 96 % of control | dose: 400.0 mg/kg/injection, schedule: Q04DX003 (ip), vehicle: Klucel (hydroxypropylcellulose) (HPC) 98 % of control
